{
  "source": "patent US20160317561A1",
  "about": "“USE OF D-RIBOSE FOR FATIGUED SUBJECTS” (Bioenergy Life Science, Inc., priority 2008, published 2016)",
  "assay_type_in_all_cases": "in vivo, human",
  "key": {"[1]": {"experiment": "Sub-maximal cardiopulmonary exercise (CPX) treadmill testing in fatigued aging subjects", "details": "for Hr to METS ratio at AT, mean change / Net Energy Expenditure at AT, mean change / O2 Uptake Slope, mean change / VE Slope, mean change / VO2 at AT, mean change: 3.0 g D-ribose bid orally", "procedure": "The pilot study was performed enrolling 20 aging subjects, greater than 45 years of age, who were self-perceived as fatigued and tired as their customary daily state for at least one month, with no strenuous exercise or physical labor to account for the fatigue. No subjects had documented histories of heart/lung or metabolism/endocrine disease, as set out more fully below in the inclusion criteria. The causes of fatigue in aging subjects is unknown. It can be hypothesized that the causes are mental, since lowered cognition and feeling of wellbeing is also common in aging persons. The aforementioned studies of unhealthy persons or persons exercising strenuously found a dose of five to eight grams of D-ribose, taken two to four times per day was recommended to raise or maintain ATP levels. Lower amounts such as in this study, were not found adequate for those subjects. For the healthy, but sedentary and aging subjects for this study, it was expected that they were already at an optimum ATP level. Two doses of oral D-ribose at 1.5 grams or 3.0 grams bid were selected to test the hypothesis that raising ATP levels with D-ribose could have some benefit in improving fatigue. Each subject consumed the oral D-ribose for two weeks, dissolved in a small amount of water. Study assessments were done at baseline, and at one and two weeks during the trial. The lower dose study was continued an additional two weeks. The subjective and objective assessment parameters included: sub-maximal exercise performance, resting and sub-maximal energy expenditure, the SF-36 Quality of Life Assessment and a subjective questionnaire for evaluating fatigue.\nEnergy expenditure was calculated both at rest (BMR) and also at the anaerobic threshold (AT) using standard formulae incorporated into CPX-based software. Net energy expenditure was determined by subtracting resting values from those calculated at the subject's AT. In addition, the completed activity log was used to determine potential changes in cumulative (daily and weekly) energy expenditure throughout the first and second weeks while on D-ribose. Further, work efficiency was determined by calculating the reciprocal of aerobic power or the VO2 to WR ratio, as computed at the anaerobic threshold.\nThe formula for calculation of energy expenditure at the anaerobic threshold was based, in part, on the actual measured resting energy expenditure (RER) and VO2 at that level of exercise, knowing that a subject can sustain a steady state at the initial phase of the AT, which represents a particular phase of exercise whereby energy metabolism due to an increase in oxygen consumption resulting in a reduction in tissue oxygen perfusion shifts to an anaerobic instead of an oxidative phosphorylation. The AT interval varies from person to person depending on physical condition or training. Individuals who are not trained and relatively deconditioned have a low AT, as compared to elite endurance athletes having a high AT. At the AT, fuel mix for skeletal muscle metabolism is somewhat balanced. This point occurs in the range between 40% to 60% of the maximum VO2 attained. For example, assuming that equal amounts of fats and carbohydrates are oxidized at an RER of 0.85 just prior to AT onset, energy expenditure can be calculated using the formula VO2(L/min)×4.862 kcal/min for each liter of oxygen consumed. Likewise, if an individual was at an RER of 0.89 under steady state conditions, their absolute VO2 in L/min would be multiplied by a factor of 4.911. Net energy expenditure would be calculated subtracting the subject's resting energy expenditure (REE) or BMR. METS or net metabolic equivalents was also used to express the subject's activity level at their AT.\nFor this study, a ramping incremental treadmill exercise protocol was followed. […] The treadmill exercise was increased from 0 mph to 3.0 mph and the elevation increased from 0 to 12%, over the test time of six minutes. […]"}, "[2]": {"experiment": "Side effects of D-ribose administration in the study subjects", "details": "higher (3.0 g bid) or lower (1.5 g bid) doses", "source_text": "D-ribose ingestion is known to have the potential to cause gastrointestinal distress, including flatulence and diarrhea, and also can lower blood glucose."}, "[3]": {"experiment": "SF-36 Quality of Life Questionnaire in fatigued aging subjects", "source_text": "The SF-36 Quality of Life Questionnaire was also used. Subjects were asked to fill out a questionnaire on the normal activities that they participated in. An example of the SF-36 Quality of Life Questionnaire is presented in Appendix A. These activities included household chores, walking, yard work and whether the subject routinely climbed stairs. Additionally, subjects were asked how many days in the past week they felt good; missed work or routine chores because of fatigue; how tired they felt and their state on awakening in the morning. In order to understand what the self-perception of fatigue (described as fatigue, tiredness or loss of vitality) indicates, it is helpful to look at the questions asked in SF-36 Quality of Life questionnaire (Appendix A). The SF-36 questionnaire is applied particularly to evaluating physician-prescribed therapies, but the gender-neutral, generic, coherent and easily administered questions are useful to evaluate any discrete cohort of subjects in the categories desired. […] The first three categories as listed are directed to the subject's self-perceived status. The remaining categories are directed to the extent that status (whatever that status may be), affects the subject's functioning roles in several categories."}, "[4]": {"experiment": "Fatigue questionnaire / Visual Analog Scale (VAS) for fatigue in fatigued aging subjects", "details": "for Fatigue questionnaire: lower dose (1.5 g bid)", "procedure": "Subjects were monitored at baseline and during the two week treatment period for their perceived fatigue activity levels. Subjects were asked to rate on a ten point scale (1=near dead to 10=excellent) the following questions: How is your energy? (1=no energy, 10=excellent); How do you sleep? (1=no sleep, 10=8 hours without waking); How is your mental clarity? (1=“brain fog”, 10=good clarity); How bad is your pain?; How is your overall sense of well being? At weeks one and two, subjects were also asked to describe their overall rating of symptoms of fatigue as compared to their symptoms at baseline. The five point scale was; much better, somewhat better; no change; somewhat worse and much worse. The investigators selected end-points of some assessments to determine whether the subjects remained the same or improved at one and two weeks. The results were represented in a Visual Analog Scale (VAS) for fatigue. Nine subjects completed the VAS forms of subjective estimate of tiredness (Appendix B) on a scale of 1 (completely disagree) to 7 (completely agree)."}},
  "data": [
    {"smiles": "O=C[C@H](O)[C@H](O)[C@H](O)CO", "note": "[D-ribose]", "values": [
      {"measurement": "Hr to METS ratio at AT, mean change", "setting": "[1]; Week 1 vs baseline", "value": "−3.00 +/− 2.83"},
      {"measurement": "Net Energy Expenditure at AT, mean change", "setting": "[1]; Week 1 vs baseline", "value": "9.32 +/− 7.67"},
      {"measurement": "O2 Uptake Slope, mean change", "setting": "[1]; Week 1 vs baseline", "value": "0.17 +/− 0.19"},
      {"measurement": "VE Slope, mean change", "setting": "[1]; Week 1 vs baseline", "value": "−2.26 +/− 1.69"},
      {"measurement": "VO2 at AT, mean change", "setting": "[1]; Week 1 vs baseline", "value": "1.53 +/− 0.90"},
      {"measurement": "Hr to METS ratio at AT, mean change", "setting": "[1]; Week 2 vs baseline", "value": "−3.67 +/− 3.27"},
      {"measurement": "Net Energy Expenditure at AT, mean change", "setting": "[1]; Week 2 vs baseline", "value": "16.23 +/− 6.13"},
      {"measurement": "O2 Uptake Slope, mean change", "setting": "[1]; Week 2 vs baseline", "value": "0.24 +/− 0.15"},
      {"measurement": "VE Slope, mean change", "setting": "[1]; Week 2 vs baseline", "value": "−2.44 +/− 2.24"},
      {"measurement": "VO2 at AT, mean change", "setting": "[1]; Week 2 vs baseline", "value": "2.13 +/− 0.78"},
      {"measurement": "Increase in resting energy expenditure at the AT onset", "setting": "[1]; 3.0 g bid orally, end of two weeks", "value": 8.2, "unit": "%"},
      {"measurement": "Rise in net energy expenditure at the AT onset", "setting": "[1]; 3.0 g bid orally, end of two weeks, p<0.0005", "value": 32, "unit": "%"},
      {"measurement": "Increase in VO2 at the AT onset", "setting": "[1]; 3.0 g bid orally, end of two weeks, p<0.001", "value": 18, "unit": "%"},
      {"measurement": "Increase in heart rate at the AT onset", "setting": "[1]; 3.0 g bid orally, end of two weeks, p=0.012", "value": 9.2, "unit": "%"},
      {"measurement": "Decrease in heart rate to METS ratio", "setting": "[1]; 3.0 g bid orally, two weeks", "value": 11.7, "unit": "%"},
      {"measurement": "Decrease in oxygen pulse indexed to inspiratory drive", "setting": "[1]; 3.0 g bid orally, two weeks", "value": 8.9, "unit": "%"},
      {"measurement": "Decrease in ventilatory efficiency slope", "setting": "[1]; 3.0 g bid orally, two weeks", "value": 8.5, "unit": "%"},
      {"measurement": "Increase in change in oxygen pulse times change in expired CO2 at AT", "setting": "[1]; 3.0 g bid orally, two weeks", "value": 60.8, "unit": "%"},
      {"measurement": "Average calorie burned from fat substrate at the AT", "setting": "[1]; 3.0 g bid orally, two weeks, most subjects", "value": "did not change significantly"},
      {"measurement": "CPX parameters (objective measures)", "setting": "[1]; lower dose (1.5 g bid), two weeks to four weeks", "value": "positive trend"},
      {"measurement": "Side effects of D-ribose administration", "setting": "[2]", "value": "No subjects in this study, at either the higher or the lower doses, experienced any side effects"},
      {"measurement": "Response to the SF-36 Questionnaire", "setting": "[3]; lower dose (1.5 g bid), four weeks", "value": "improvement in symptoms of general health, vitality and mental outlook"},
      {"measurement": "SF-36 Bodily pain (interference with activities)", "setting": "[3]; results at two weeks", "value": "significant improvement"},
      {"measurement": "SF-36 Emotional function role", "setting": "[3]; results at two weeks", "value": "significant improvement"},
      {"measurement": "SF-36 Social function role", "setting": "[3]; results at two weeks", "value": "significant improvement"},
      {"measurement": "SF-36 Vitality", "setting": "[3]; results at two weeks, initially low at 40th percentile", "value": "significant improvement"},
      {"measurement": "SF-36 Physical competence", "setting": "[3]; results at two weeks, initially near normal", "value": "slight improvement"},
      {"measurement": "SF-36 General health", "setting": "[3]; results at two weeks, initially normal", "value": "slight improvement"},
      {"measurement": "SF-36 Role physical function", "setting": "[3]; results at two weeks, initially slightly subnormal", "value": "significant improvement"},
      {"measurement": "Social functionality, emotional wellbeing, mental health and mental competence (questionnaire)", "setting": "[3]; two weeks, mental categories based on additional questions not in SF-36", "value": "increases"},
      {"measurement": "Fatigue questionnaire", "setting": "[4]; continued for an additional two weeks (four weeks), FIG. 7", "value": "Continued improvement"},
      {"measurement": "Fatigue questionnaire", "setting": "[4]; two weeks", "value": "slight reduction in fatigue"},
      {"measurement": "Decrease in self-perceived levels of fatigue (average)", "setting": "[4]; six grams of D-ribose per day (3.0 g bid), two weeks", "value": 50, "unit": "%"}
    ]}
  ]
}
